Legend:
ERBB4-PIK3R1 = molecular target: T1, ERBB4-PIK3R1 (Homo sapiens, UniProt Q15303); experiment: ERBB4-PIK3R1 split TEV single-culture dose-response assay, EGFld as stimulus; format: cell-based; settings: for inhibitory effect in the ERBB4-PIK3R1 single-culture assay: PC12 cells, 10 ng/ml EGFld as stimulus
T1 construct: human full‐length ERBB4‐Cyt1 was fused to the NTEV fragment; expressed in transfected cells; host or cells: PC12 Tet-Off cells (rat)
Excerpt: For our HTS‐compatible split TEV assay approach, human full‐length ERBB4‐Cyt1 was fused to the NTEV fragment, a TEV protease cleavage site (tevS) and the artificial co‐transcriptional activator Gal4‐VP16 (ERBB4‐NTEV‐tevS‐GV); human PIK3R1 was fused to the CTEV fragment (PIK3R1‐CTEV) (Fig 1A). Upon ERBB4 activation, PIK3R1 is recruited to the receptor resulting in a reconstituted protease activity that cleaves off GV. In turn, released GV translocates to the nucleus and binds to upstream activating sequences (UAS) to activate the transcription of a firefly luciferase reporter gene (Fig 1A). A constitutively expressed Renilla luciferase driven under the control of the human thymidine kinase (TK) promoter was used as control to address off‐target effects related to toxicity.
For one 96‐well plate, 4 × 10^6 PC12 cells were harvested and diluted in 5 ml assay medium (phenol red‐free DMEM (low glucose, Life Technologies), 10% FCS, 5% HS, no antibiotics). The split TEV assay plasmids (2 μg pcDNA3_ERBB4‐NTEV‐tevS‐GV‐2xHA, 2 μg pTag4C_PIK3R1‐CTEV‐2xHA, 2 μg p5xUAS_firefly luciferase, 2 μg pTK_Renilla luciferase, and 0.5 μg pECFP‐C1 for examining transfection efficiency) were diluted in 2.5 ml Opti‐MEM (Life Technologies) and vortexed. In parallel, 20 μl of the transfection reagent Lipofectamine 2000 was diluted in 2.5 ml Opti‐MEM and vortexed.

[1] = tested on: pyramidal neurons of the prefrontal cortex; experiment: Spontaneous inhibitory postsynaptic currents (sIPSCs) in acute prefrontal cortex slices; format: cell-based, mouse; settings: 10 μM, bath application
Experimental: (§1) 300‐μm‐thick transverse slices comprising the medial prefrontal cortex (mPFC) area were prepared from 7‐ to 8‐week‐old C57Bl/6 mice as described previously (Teng et al, 2013; Agarwal et al, 2014). All recordings were performed in cortical layer V projection neurons. The bath solution consisted of oxygenated artificial cerebrospinal fluid (ACSF) containing NaCl 126 mM, KCl 3 mM, NaH2PO4 1.25 mM, MgSO4 1 mM, NaHCO3 26 mM, CaCl2 2 mM, glucose 10 mM, and the pH 7.2 adjusted with NaOH. Spontaneous GABAergic inhibitory postsynaptic currents (sIPSC) and evoked GABAergic inhibitory postsynaptic currents (eIPSC) were recorded at a holding potential of −70 mV in the presence of 6‐cyano‐7‐nitroquinoxaline‐2,3‐dione (CNQX, 10 μM) and DL‐2‐amino‐5‐phosphonovaleric acid (D‐APV, 50 μM). Glass pipettes were filled with the solution containing: KCl 140 mM, MgCl2 2 mM, CaCl2 1 mM, Na2GTP 0.5 mM, Na2ATP 4 mM, EGTA 10 mM, HEPES 10 mM. Patches with a series resistance of > 25 MΩ, a membrane resistance of < 0.8 GΩ, or leak currents of > 150 pA were excluded. Biphasic rectangular electric pulses (10 ms, 100–300 μA) were applied to layer I of the prelimbic area of mPFC through another glass pipette filled with ACSF. Synaptic currents were acquired at 20 kHz and filtered at 6 kHz, with a Digidata 1440 ADC‐converter coupled to a Multiclamp 700B amplifier (Molecular Devices, USA). Data acquisition was performed using pClamp10 software (Molecular Devices). MiniAnalysis 6.0.9 (Synaptosoft Inc., Decatur, USA) and pClamp10.1 were used for amplitude and frequency analysis of sIPSCs and eIPSCs, respectively. Paired Student's t‐test was used for statistical analysis.

[2] = tested on: pyramidal neurons of the prefrontal cortex; experiment: Evoked inhibitory postsynaptic currents (eIPSCs) in acute prefrontal cortex slices; format: cell-based, mouse; settings: 5 μM
Experimental: as §1, with “Data acquisition was performed using pClamp10 software (Molecular Devices). MiniAnalysis 6.0.9 (Synaptosoft Inc., Decatur, USA) and pClamp10.1 were used for amplitude and frequency analysis of sIPSCs and eIPSCs, respectively. Paired Student's t‐test was used for statistical analysis.” left out

ERBB4 = ERBB4 (Homo sapiens, UniProt Q15303); experiment: Western blot of ERBB4 phosphorylation in T-47D cells; settings: 10 ng/ml EGFld, 10 μM compound, 5 min
ERBB4, sequence (Q15303 26-1308): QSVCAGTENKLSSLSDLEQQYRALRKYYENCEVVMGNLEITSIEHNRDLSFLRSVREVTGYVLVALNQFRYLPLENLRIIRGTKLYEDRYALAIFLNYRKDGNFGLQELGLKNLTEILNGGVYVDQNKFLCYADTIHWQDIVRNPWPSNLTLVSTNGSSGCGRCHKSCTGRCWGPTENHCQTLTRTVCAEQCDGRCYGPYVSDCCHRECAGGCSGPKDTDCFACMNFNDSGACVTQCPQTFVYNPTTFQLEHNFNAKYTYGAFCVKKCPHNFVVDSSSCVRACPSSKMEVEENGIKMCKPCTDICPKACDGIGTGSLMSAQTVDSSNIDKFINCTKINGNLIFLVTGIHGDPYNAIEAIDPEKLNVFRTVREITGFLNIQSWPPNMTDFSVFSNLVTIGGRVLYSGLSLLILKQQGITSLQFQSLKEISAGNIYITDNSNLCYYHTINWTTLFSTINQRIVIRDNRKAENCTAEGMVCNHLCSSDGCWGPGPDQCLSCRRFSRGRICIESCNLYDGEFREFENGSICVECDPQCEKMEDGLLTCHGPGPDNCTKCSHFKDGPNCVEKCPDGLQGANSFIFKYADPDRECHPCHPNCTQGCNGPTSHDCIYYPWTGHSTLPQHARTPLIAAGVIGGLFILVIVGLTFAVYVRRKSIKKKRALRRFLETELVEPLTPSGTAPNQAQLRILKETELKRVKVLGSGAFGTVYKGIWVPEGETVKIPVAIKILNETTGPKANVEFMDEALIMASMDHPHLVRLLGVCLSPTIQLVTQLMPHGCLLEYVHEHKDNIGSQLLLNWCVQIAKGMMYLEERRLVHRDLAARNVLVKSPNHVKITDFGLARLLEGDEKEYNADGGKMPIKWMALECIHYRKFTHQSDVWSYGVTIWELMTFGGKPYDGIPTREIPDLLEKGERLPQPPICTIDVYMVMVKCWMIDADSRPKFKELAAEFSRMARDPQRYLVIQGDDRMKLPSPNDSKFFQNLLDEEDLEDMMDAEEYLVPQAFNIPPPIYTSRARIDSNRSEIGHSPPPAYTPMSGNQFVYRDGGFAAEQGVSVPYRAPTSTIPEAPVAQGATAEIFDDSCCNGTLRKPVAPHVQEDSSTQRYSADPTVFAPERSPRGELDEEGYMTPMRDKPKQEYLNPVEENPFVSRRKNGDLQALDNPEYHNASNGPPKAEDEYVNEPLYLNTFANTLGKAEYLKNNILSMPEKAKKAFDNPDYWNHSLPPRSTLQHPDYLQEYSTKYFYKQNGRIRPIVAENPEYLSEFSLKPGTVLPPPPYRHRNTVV

T1 sequence (Q15303 26-1308): as above

CS[C@@H]1CC2=CC(=O)CC[C@]2(C)C2CC[C@@]3(C)C(CCC34CCC(=O)O4)C21 (some centres unmarked)
inhibitory effect in the ERBB4-PIK3R1 single-culture assay (ERBB4-PIK3R1): None of these compounds showed an inhibitory effect

C[C@]12CCC(=O)C=C1C=C[C@@H]1[C@@H]2CC[C@@]2(C)[C@H]1CC[C@@]21CCC(=O)O1 [canrenone]
inhibitory effect in the ERBB4-PIK3R1 single-culture assay (ERBB4-PIK3R1): None of these compounds showed an inhibitory effect | sIPSC amplitude [1]: no significant effect | sIPSC frequency [1]: no significant effect

COC(=O)[C@@H]1CC2=CC(=O)CC[C@]2(C)[C@@]23O[C@@H]2C[C@@]2(C)[C@@H](CC[C@@]24CCC(=O)O4)[C@H]13 [eplerenone]
inhibitory effect in the ERBB4-PIK3R1 single-culture assay (ERBB4-PIK3R1): None of these compounds showed an inhibitory effect

CS(=O)(=O)CCNCc1ccc(-c2ccc3ncnc(Nc4ccc(OCc5cccc(F)c5)c(Cl)c4)c3c2)o1 [lapatinib, Lapatinib ditosylate]
eIPSC amplitude [2]: increases | ERBB4 phosphorylation at Tyr1056 and Tyr1284 (ERBB4): completely reverted

EGFld: soluble biologically active EGF-like domain of NRG1, used as Nrg1 stimulus (Reprokine, RKQ02297)
EC50, ERBB4-PIK3R1 dose-response assay using EGFld as stimulus (ERBB4-PIK3R1; PC12 split TEV assay cells, single culture): 1 ng/mL

Source: article PMC5653977 (EMBO Molecular Medicine, 2017)
